Series [1] relates to P. falciparum NF54 asexual blood stage parasites. Description: Replication assay for asexual blood-stage parasites (SYBR Green). Format: cell-based. Particulars: Plasmodium falciparum; P. falciparum NF54, 72 h incubation, 10% human serum; average of at least two replicate experiments; read-out: antimalarial IC50 asexual blood stages. The protocol: (§1) Plasmodium falciparum strain NF54 was cultured in Roswell Park Memorial Institute (RPMI) 1640 medium supplemented with 25 mM NaHCO3, 10% human type A serum and 5% (v/v) human type 0 red blood cells (Sanquin, the Netherlands). Replication assays for asexual blood-stage parasites were performed by diluting parasites in RPMI1640 medium with 10% human serum to a parasitemia of 0.83% and a hematocrit of 3%. 30 μl of diluted parasites were combined with 30 μl of compound serially diluted in DMSO and RPMI1640 medium to reach a final DMSO concentration of 0.1% in a total assay volume of 60 μL. Following a 72 h incubation at 37 ° C., 3% O2, 4% CO2, 30 μL of diluted SYBR® Green reagent was added according to the instructions of the manufacturer (Life Technologies) and fluorescence intensity was quantified using a Biotek Synergy® 2 plate reader. Gametocyte viability assays were initiated by inoculating a culture flask with 1% asexual blood-stage parasites in 5% haematocrit in RPMI1640 medium with 10% human serum. From day 4 to day 9 after inoculation, cultures were treated with 50 mM N-acetylglucosamine to eliminate asexual blood-stage parasites. At day 11 post inoculation, gametocytes (predominantly stage IV) were isolated by Percoll® density gradient centrifugation. Gametocytes were seeded at a density of 5,000 cells/well in a 384 well plate and combined with compound diluted in DMSO and subsequently in RPMI1640 medium to reach a final DMSO concentration of 0.1% in a volume of 60 μL RPMI1640 medium with 10% human serum. Following a 72 h incubation at 37 ° C., 3% O2, 4% CO2, 30 μL of ONE-Glo® reagent (Promega) was added and luminescence was quantified using a Biotek Synergy 2 reader. IC50 values were derived by fitting a four parameter logistic regression model to the data using least squares to find the best fit.

Series [2] can be described thus: Metabolic stability in human primary hepatocytes (hepatocyte relay assay). The series is classed as in vitro ADME. Particulars: primary hepatocytes (hepatocyte relay assay), human primary hepatocytes, relay assay, 10 μM, average of two replicate experiments; for half-life at 10 μM: read-out: T½ average. The protocol:
(§2) Metabolic stability of compounds of the invention was assessed in a hepatocyte relay assay. Human primary hepatocytes (Xenotech) were cultured in collagen coated 96-well plates in Williams E (Gibco® 32551087) supplemented with 1% PenStrep (Gibco 15140-122), 1% Fungizone® (Gibco 15290026), 10% heat-inactivated fetal bovine serum (hiFBS) (Gibco 10270-106), 0.1 IU/ml insulin (Sigma 12643) and 7μM hydrocortisone hemisuccinate (Sigma H2270) at 37° C. and 5% CO2. Test compounds were added to a final concentration of 10 μM in 0.1 DMSO. Every 24 hours, the cell supernatant was transferred to freshly plated, metabolically full active cells. At regular time intervals, aliquots of supernatants were frozen for future analysis. At the end of the incubation, all samples were thawed and compound levels in time were determined by LC-MS analyses. Data were analysed by linear regression.

The subject of series [3] is P. falciparum strain Pf3D70087/N9. Description: In vivo antimalarial activity in humanized mouse model for P. falciparum infection. Also on record: species or system Plasmodium falciparum. The protocol: Reduction of existing parasitemia in vivo was investigated using a humanized mouse model for P. falciparum infection. Female NODscidIL2Rynull mice were engrafted by daily intravenous injection of 0.6 ml of human blood for 11 days. Subsequently, mice were infected with P. falciparum strain Pf3D70087/N9 by injecting 2.10^7 parasites in a volume of 0.2 ml. Four days post infection, mice were treated with a single 50 mg/kg dose of test compound. To this end, compounds were formulated in 70% Tween®-80 (d=1.08g/ml) and 30% ethanol (d=0.81g/ml), followed by a 10-fold dilution in H2O and administered by oral gavage. Parasitemia was followed by daily collection of 2 μl tail blood. The hematocrit was determined by fluorescence-activated cell sorting (FACS) and parasitemia by microscopy on >10,000 red blood cells. […] The compounds indicated at the legend were dosed as a single oral dose of 50 mg/kg at day 4 post infection (indicated by the arrow) and parasitemia was followed for another three days. The data shown in FIG. 1 indicate that all pantothenamide analogues tested show a dramatic reduction in blood stage parasitemia at a single oral dose of 50 mg/kg.

Series [4] deals with P. falciparum NF54 gametocytes. The series can be described thus: Gametocyte viability assay (ONE-Glo luminescence). The conditions noted are these: Plasmodium falciparum; P. falciparum NF54 gametocytes (predominantly stage IV), 72 h incubation, 10% human serum; average of at least two replicate experiments; read-out: antimalarial IC50 gametocytes. Format: cell-based. How it is done:
as §1

The test system of series [5] is Human primary hepatocytes. The series can be described thus: Metabolic stability in human primary hepatocytes (hepatocyte relay assay). The series is classed as in vitro ADME. The conditions noted are these: comparative example. The protocol:
as §2

The mark [6] stands for this setting: female NODscidIL2Rγnull mice, single oral dose 50 mg/kg at day 4 post infection.
The mark [7] stands for this setting: same protocol as example 16, relay assay.

The values that follow come from patent US11834391B2, “Pantothenamide analogues” (MMV MEDICINES FOR MALARIA VENTURE, priority 2018, dated 2023).

For orientation: IC50 means the midpoint of a concentration-inhibition curve. The hepatocyte CLint is the capacity of the preparation to metabolise the compound, expressed as a volume cleared per time.

On to `C[C@@H](CNC(=O)[C@H](O)C(C)(C)CO)NC(=O)c1cc(F)c(F)cc1F` [Compound A1, (2R)-2,4-dihydroxy-3,3-dimethyl-N-[(2S)-2-[(2,4,5-trifluorophenyl)formamido]propyl]butanamide], for which the IC50 in series [1] worked out at 2.4 nM. In addition, in series [2], the hepatocyte CLint at 10 μM was 0.4 µL/min/1e6 cells and the half-life at 10 μM was found to be 59.4 h. Further, the “In vivo efficacy log reduction in parasitemia in Pf SCID mouse at 50 mg/kg p.o. 1 × QD” value in series [3] (setting [6]) is on record as over 3. In addition, in series [4], the 50% inhibitory concentration (IC50) came out at 8 nM.

`C[C@@H](CNC(=O)[C@H](O)C(C)(C)CO)NC(=O)c1cc(C#N)ccc1F` [Compound B1, (2R)-N-[(2S)-2-[(5-cyano-2-fluorophenyl)formamido]propyl]-2,4-dihydroxy-3,3-dimethylbutanamide]: the figures for the IC50 in series [1] and in series [4] were 6.2 nM and 21.4 nM, respectively. The compound further yielded an intrinsic clearance (hepatocyte CLint) at 10 μM in series [2] of 0.2 µL/min/1e6 cells. Besides, in series [2], the half-life at 10 μM amounted to 107 h. For the same compound, the “In vivo efficacy log reduction in parasitemia in Pf SCID mouse at 50 mg/kg p.o. 1 × QD” value in series [3] (setting [6]) stood at 2.4.

As to `C[C@@H](CNC(=O)[C@H](O)C(C)(C)CO)NC(=O)c1cccc(C#N)c1` [Compound C1, (2R)-N-[(2S)-2-[(3-cyanophenyl)formamido]propyl]-2,4-dihydroxy-3,3-dimethylbutanamide], the concentration for half-maximal inhibition (IC50) in series [1] turned out to be 7.4 nM. For the same compound, in series [2], the hepatocyte CLint at 10 μM is 0.3 µL/min/1e6 cells and the half-life at 10 μM worked out at 84.1 h. The “In vivo efficacy log reduction in parasitemia in Pf SCID mouse at 50 mg/kg p.o. 1 × QD” value in series [3] (setting [6]) was over 3. In addition, in series [4], the 50% inhibitory concentration (IC50) was found to be 2.2 nM.

Turning to `C[C@@H](CNC(=O)[C@H](O)C(C)(C)CO)NC(=O)c1cc(Cl)c(F)cc1F` [Compound D1, (2R)-N-[(2S)-2-[(5-chloro-2,4-difluorophenyl)formamido]propyl]-2,4-dihydroxy-3,3-dimethylbutanamide], the IC50 was 2.3 nM in series [1] and 0.4 nM in series [4].

As for `C[C@@H](CNC(=O)[C@H](O)C(C)(C)CO)NC(=O)c1cccc(F)c1` [Compound E1, (2R)-N-[(2S)-2-[(3-fluorophenyl)formamido]propyl]-2,4-dihydroxy-3,3-dimethylbutanamide], the IC50 in series [1] was determined as 1.9 nM. For the same compound, in series [2], the intrinsic clearance (hepatocyte CLint) at 10 μM was determined as 0.5 µL/min/1e6 cells and the half-life at 10 μM turned out to be 42.2 h. For the same compound, the “In vivo efficacy log reduction in parasitemia in Pf SCID mouse at 50 mg/kg p.o. 1 × QD” value in series [3] (setting [6]) was over 3. In addition, the IC50 in series [4] is 2 nM.

As for `C[C@@H](CNC(=O)[C@H](O)C(C)(C)CO)NC(=O)c1cccc(Cl)c1` [Compound F1, (2R)-N-[(2S)-2-[(3-chlorophenyl)formamido]propyl]-2,4-dihydroxy-3,3-dimethylbutanamide], the IC50 in series [1] worked out at 2.1 nM; in series [4], 0.4 nM.

With `C[C@@H](CNC(=O)[C@H](O)C(C)(C)CO)NC(=O)c1ccc(F)c(Cl)c1` [Compound G1, (2R)-N-[(2S)-2-[(3-chloro-4-fluorophenyl)formamido]propyl]-2,4-dihydroxy-3,3-dimethylbutanamide], the results for the IC50 in series [1] and in series [4] were 3.4 nM and 0.2 nM, respectively.

`C[C@H](CNC(=O)[C@@H](O)C(C)(C)CO)NC(=O)CCc1ccccc1F` [MMV689258, reference compound]: in series [5], the “metabolic stability compared with the compounds of the invention (in words)” value is given as “substantially lower”. In addition, in series [5] (setting [7]), the “Metabolic stability in human hepatocytes Clint” value is reported as 0.8 μl/min/10^6 cells and the “Metabolic stability in human hepatocytes T½” value is 29.403 h. Further, the “in vivo efficacy compared with the compounds of the invention (in words)” value in series [3] (comparative example) was “substantially less efficacious”. For the same compound, the “In vivo efficacy log reduction in parasitemia in Pf SCID mouse at 50 mg/kg p.o. 1 × QD” value in series [3] (comparative example, same protocol as example 17, female NODscidIL2Rγnull mice) came out at 1.5.
